This is an account of results in ChEMBL document CHEMBL4152384, “Pyrtriazoles, a Novel Class of Store-Operated Calcium Entry Modulators: Discovery, Biological Profiling, and in Vivo Proof-of-Concept Efficacy in Acute Pancreatitis” (J Med Chem, 2018).

The structures appear in SMILES notation.

Sequence of Short transient receptor potential channel 1 & 3/Stromal interaction molecule 1/Calcium release-activated calcium channel protein 1 (Homo sapiens) (P48995 whole entry partner): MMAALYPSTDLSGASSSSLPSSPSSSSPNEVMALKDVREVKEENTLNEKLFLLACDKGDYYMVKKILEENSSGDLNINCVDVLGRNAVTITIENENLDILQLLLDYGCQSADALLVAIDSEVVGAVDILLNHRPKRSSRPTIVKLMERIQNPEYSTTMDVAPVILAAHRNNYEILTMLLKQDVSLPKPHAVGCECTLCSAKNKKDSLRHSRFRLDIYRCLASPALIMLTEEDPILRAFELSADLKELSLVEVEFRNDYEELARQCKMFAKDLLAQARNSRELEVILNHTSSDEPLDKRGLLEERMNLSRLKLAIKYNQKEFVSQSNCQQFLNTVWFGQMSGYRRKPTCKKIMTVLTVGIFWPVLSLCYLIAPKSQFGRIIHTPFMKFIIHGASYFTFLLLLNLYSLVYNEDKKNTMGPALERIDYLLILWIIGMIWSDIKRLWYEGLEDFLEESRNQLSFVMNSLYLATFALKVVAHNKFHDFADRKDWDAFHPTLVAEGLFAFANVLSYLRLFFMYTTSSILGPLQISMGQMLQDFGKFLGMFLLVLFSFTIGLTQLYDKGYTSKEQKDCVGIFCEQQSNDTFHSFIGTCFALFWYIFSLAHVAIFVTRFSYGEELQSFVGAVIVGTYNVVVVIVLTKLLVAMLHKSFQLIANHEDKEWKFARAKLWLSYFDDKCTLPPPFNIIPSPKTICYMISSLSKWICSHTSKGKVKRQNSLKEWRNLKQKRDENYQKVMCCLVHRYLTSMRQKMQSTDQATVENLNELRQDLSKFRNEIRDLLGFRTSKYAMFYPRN
Sequence of Short transient receptor potential channel 1 & 3/Stromal interaction molecule 1/Calcium release-activated calcium channel protein 1 (Homo sapiens) (Q13507 whole entry partner): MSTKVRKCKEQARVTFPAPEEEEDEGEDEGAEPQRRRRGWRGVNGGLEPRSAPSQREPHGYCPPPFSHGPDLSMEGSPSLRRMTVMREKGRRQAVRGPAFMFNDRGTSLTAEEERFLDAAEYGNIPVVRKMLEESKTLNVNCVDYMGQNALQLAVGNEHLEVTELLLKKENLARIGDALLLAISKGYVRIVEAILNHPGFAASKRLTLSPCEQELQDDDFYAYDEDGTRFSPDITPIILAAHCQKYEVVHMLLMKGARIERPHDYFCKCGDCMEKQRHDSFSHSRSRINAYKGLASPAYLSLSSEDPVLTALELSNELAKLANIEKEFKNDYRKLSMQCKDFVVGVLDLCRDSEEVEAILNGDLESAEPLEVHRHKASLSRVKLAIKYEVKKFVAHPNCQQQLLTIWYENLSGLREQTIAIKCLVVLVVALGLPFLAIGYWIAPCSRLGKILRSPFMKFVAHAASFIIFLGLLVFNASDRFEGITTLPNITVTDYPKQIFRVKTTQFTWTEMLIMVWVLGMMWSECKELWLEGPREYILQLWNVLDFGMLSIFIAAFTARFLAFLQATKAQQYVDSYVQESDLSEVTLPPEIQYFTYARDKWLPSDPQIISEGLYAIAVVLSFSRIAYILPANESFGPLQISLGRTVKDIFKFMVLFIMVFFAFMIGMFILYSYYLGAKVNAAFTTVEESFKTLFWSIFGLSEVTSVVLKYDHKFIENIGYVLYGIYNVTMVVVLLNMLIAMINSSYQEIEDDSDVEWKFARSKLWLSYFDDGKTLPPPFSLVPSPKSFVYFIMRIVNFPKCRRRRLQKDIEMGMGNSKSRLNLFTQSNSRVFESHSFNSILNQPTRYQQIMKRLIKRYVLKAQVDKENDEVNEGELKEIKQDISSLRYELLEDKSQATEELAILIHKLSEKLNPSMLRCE
Sequence of Short transient receptor potential channel 1 & 3/Stromal interaction molecule 1/Calcium release-activated calcium channel protein 1 (Homo sapiens) (Q13586 23-685 partner limits assumed): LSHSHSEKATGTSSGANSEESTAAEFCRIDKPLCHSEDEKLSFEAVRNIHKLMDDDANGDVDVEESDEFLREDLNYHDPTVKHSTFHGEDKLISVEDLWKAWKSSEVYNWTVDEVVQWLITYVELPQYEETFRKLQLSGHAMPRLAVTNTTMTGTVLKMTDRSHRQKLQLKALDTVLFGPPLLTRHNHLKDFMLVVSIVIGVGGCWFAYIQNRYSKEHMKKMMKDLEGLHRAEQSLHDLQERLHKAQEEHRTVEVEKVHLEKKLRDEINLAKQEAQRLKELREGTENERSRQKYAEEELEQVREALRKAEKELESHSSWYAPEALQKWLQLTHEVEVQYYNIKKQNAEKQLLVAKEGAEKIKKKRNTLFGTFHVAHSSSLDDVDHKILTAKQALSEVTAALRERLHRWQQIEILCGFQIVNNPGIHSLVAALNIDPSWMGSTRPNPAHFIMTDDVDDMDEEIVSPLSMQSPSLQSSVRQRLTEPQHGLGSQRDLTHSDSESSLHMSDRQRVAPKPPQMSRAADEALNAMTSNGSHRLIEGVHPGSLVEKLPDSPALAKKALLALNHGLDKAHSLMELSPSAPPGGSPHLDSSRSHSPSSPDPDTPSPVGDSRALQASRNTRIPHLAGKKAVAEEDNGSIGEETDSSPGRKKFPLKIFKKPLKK
Sequence of Short transient receptor potential channel 1 & 3/Stromal interaction molecule 1/Calcium release-activated calcium channel protein 1 (Homo sapiens) (Q96D31 whole entry): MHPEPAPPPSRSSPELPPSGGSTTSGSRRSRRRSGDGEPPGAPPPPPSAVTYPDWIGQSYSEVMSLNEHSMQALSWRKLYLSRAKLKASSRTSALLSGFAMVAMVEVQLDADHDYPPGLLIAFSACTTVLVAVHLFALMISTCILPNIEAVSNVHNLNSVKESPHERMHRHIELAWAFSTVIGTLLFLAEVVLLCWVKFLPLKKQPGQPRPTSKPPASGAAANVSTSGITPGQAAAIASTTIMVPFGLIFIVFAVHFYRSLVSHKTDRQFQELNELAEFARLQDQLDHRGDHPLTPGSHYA

The target of one assay is Stromal interaction molecule 1 & 2/Calcium release-activated calcium channel protein 1 (Mus musculus) (UniProt Q8BWG9+P70302+P83093). Description: Modulation of STIM1/STIM2/Orai1 in mouse BV2 cells assessed as induction of store-operated calcium entry by measuring residual activity at 10 uM preincubated for 30 mins followed by tBhQ-mediated Ca2+ depletion and Ca2+ re-addition to extracellular solution measured for 600 secs by Fluo-4 AM-based fluorometric assay relative to control. In kind it is cell-based.
For `FC(F)(F)c1cc(C(F)(F)F)n(-c2ccc(-c3cn(-c4ccccc4)nn3)cc2)n1`, the Activity worked out at 99.7%.

On to `CCOC(=O)c1cnn(-c2ccc(-c3cn(-c4ccc(NC(C)=O)cc4)nn3)cc2)c1C(F)(F)F`, for which the Activity was found to be 108%.

For `CC(=O)Nc1ccccc1-c1cn(-c2ccc(-n3nc(C(F)(F)F)cc3C(F)(F)F)cc2)nn1`, the Activity was 93.2%.

Consider `Fc1cnccc1-n1cc(-c2ccc(-n3nc(C(F)(F)F)cc3C(F)(F)F)cc2)nn1`, for which the Activity was determined as 106%.

`FC(F)(F)c1cc(C(F)(F)F)n(-c2ccc(-n3cc(-c4cccnc4)nn3)cc2)n1`: the Activity was 87.8%.

As to `CCOC(=O)c1cnn(-c2ccc(-c3cn(-c4cccnc4)nn3)cc2)c1C(F)(F)F`, the Activity was determined as 62.6%.

Regarding `CCOC(=O)c1cnn(-c2ccc(-c3cn(-c4ccc(OC)c(OC)c4)nn3)cc2)c1C(F)(F)F`, the Activity came out at 113%.

As for `O=C(O)CCCc1cn(-c2ccc(-n3nc(C(F)(F)F)cc3C(F)(F)F)cc2)nn1`, the Activity was 80.1%.

With `FC(F)(F)c1cc(C(F)(F)F)n(-c2ccc(-n3cc(-c4ccc(Cl)cc4)nn3)cc2)n1`, the Activity amounted to 106%.

`CCOC(=O)c1cnn(-c2ccc(-c3cn(-c4cccc(NC(C)=O)c4)nn3)cc2)c1C(F)(F)F`: the Activity stood at 117%.

Regarding `CCOC(=O)c1cnn(-c2ccc(-n3cc(-c4cccnc4)nn3)cc2)c1C(F)(F)F`, the Activity is 91.6%.

As to `COc1ccc(-n2cc(-c3ccc(-n4nc(C(F)(F)F)cc4C(F)(F)F)cc3)nn2)cc1OC`, the Activity was determined as 94.3%.

Consider `FC(F)(F)c1cc(C(F)(F)F)n(-c2ccc(-n3cc(-c4ccncc4)nn3)cc2)n1`, for which the Activity was 94.7%.

As for `FC(F)(F)c1cc(C(F)(F)F)n(-c2ccc(-c3cn(-c4ccc(Oc5ccccc5)cc4)nn3)cc2)n1`, the Activity amounted to 90.2%.

In the case of `CC(=O)Nc1cccc(-c2cn(-c3ccc(-n4nc(C(F)(F)F)cc4C(F)(F)F)cc3)nn2)c1`, the Activity was 98.1%.

As for `COc1cc(-c2cn(-c3ccc(-n4nc(C(F)(F)F)cc4C(F)(F)F)cc3)nn2)ccc1O`, the Activity came to 80.5%.

Take `CCOC(=O)c1cnn(-c2ccc(-n3cc(-c4ccc(NC(C)=O)cc4)nn3)cc2)c1C(F)(F)F`: the Activity came out at 106%.

On to `O=C(O)CCCn1cc(-c2ccc(-n3nc(C(F)(F)F)cc3C(F)(F)F)cc2)nn1`, for which the Activity turned out to be 81.7%.

In the case of `Nc1cccc(-c2cn(-c3ccc(-n4nc(C(F)(F)F)cc4C(F)(F)F)cc3)nn2)c1`, the Activity came to 103%.

For `COc1cc(OC)cc(-n2cc(-c3ccc(-n4nc(C(F)(F)F)cc4C(F)(F)F)cc3)nn2)c1`, the Activity came out at 93.7%.

Take `COc1ccc(-n2cc(-c3ccc(-n4nc(C(F)(F)F)cc4C(F)(F)F)cc3)nn2)cc1`: the Activity turned out to be 78.7%.

`CCOC(=O)c1cnn(-c2ccc(-n3cc(-c4cc(OC)cc(OC)c4)nn3)cc2)c1C(F)(F)F`: the Activity came to 99.4%.

For `Oc1cccc(-n2cc(-c3ccc(-n4nc(C(F)(F)F)cc4C(F)(F)F)cc3)nn2)c1`, the Activity was 105%.

Consider `CCOC(=O)c1cnn(-c2ccc(-n3cc(-c4cccc(OC)c4)nn3)cc2)c1C(F)(F)F`, for which the Activity is 105%.

For the compound `FC(F)(F)c1cc(C(F)(F)F)n(-c2ccc(-n3cc(-c4ccc(Oc5ccccc5)cc4)nn3)cc2)n1`, the Activity is 73.5%.

As for `FC(F)(F)c1cc(C(F)(F)F)n(-c2ccc(-c3cn(-c4ccc(Cl)cc4)nn3)cc2)n1`, the Activity stood at 116%.

With `COc1ccc(-c2cn(-c3ccc(-n4nc(C(F)(F)F)cc4C(F)(F)F)cc3)nn2)cc1OC`, the Activity stood at 109%.

In the case of `CCOC(=O)c1cnn(-c2ccc(-n3cc(-c4cccc(O)c4)nn3)cc2)c1C(F)(F)F`, the Activity came out at 96.5%.

For the compound `FC(F)(F)c1cc(C(F)(F)F)n(-c2ccc(-c3cn(-c4ccncc4)nn3)cc2)n1`, the Activity was 84%.

For `CCOC(=O)c1cnn(-c2ccc(-c3cn(-c4ccncc4)nn3)cc2)c1C(F)(F)F`, the Activity came out at 79.8%.

As for `Fc1cnccc1-c1cn(-c2ccc(-n3nc(C(F)(F)F)cc3C(F)(F)F)cc2)nn1`, the Activity was 90.2%.

As to `Nc1ccc(-c2cn(-c3ccc(-n4nc(C(F)(F)F)cc4C(F)(F)F)cc3)nn2)cc1`, the Activity worked out at 98.1%.

Turning to `CCOC(=O)c1cnn(-c2ccc(-c3cn(-c4ccc(N)cc4)nn3)cc2)c1C(F)(F)F`, the Activity was 93.2%.

Consider `CCOC(=O)c1cnn(-c2ccc(-n3cc(-c4cccc(NC(C)=O)c4)nn3)cc2)c1C(F)(F)F`, for which the Activity stood at 75.3%.

For `Nc1cccc(-n2cc(-c3ccc(-n4nc(C(F)(F)F)cc4C(F)(F)F)cc3)nn2)c1`, the Activity was determined as 85.6%.

Consider `Oc1cccc(-c2cn(-c3ccc(-n4nc(C(F)(F)F)cc4C(F)(F)F)cc3)nn2)c1`, for which the Activity amounted to 95.9%.

In the case of `CCOC(=O)c1cnn(-c2ccc(-n3cc(-c4ccc(OC)cc4)nn3)cc2)c1C(F)(F)F`, the Activity is 95.6%.

As to `CCOC(=O)c1cnn(-c2ccc(-n3cc(-c4ccccc4)nn3)cc2)c1C(F)(F)F`, the Activity stood at 86.1%.

As to `COc1cccc(-c2cn(-c3ccc(-n4nc(C(F)(F)F)cc4C(F)(F)F)cc3)nn2)c1`, the Activity came out at 105%.

Take `CCOC(=O)c1cnn(-c2ccc(-n3cc(-c4ccncc4F)nn3)cc2)c1C(F)(F)F`: the Activity is 107%.

Regarding `CCOC(=O)c1cnn(-c2ccc(-n3cc(-c4ccccc4NC(C)=O)nn3)cc2)c1C(F)(F)F`, the Activity worked out at 72%.

`CCOC(=O)c1cnn(-c2ccc(-n3cc(-c4ccc(N)cc4)nn3)cc2)c1C(F)(F)F`: the Activity stood at 91.7%.

Regarding `CCOC(=O)c1cnn(-c2ccc(-n3cc(-c4ccncc4)nn3)cc2)c1C(F)(F)F`, the Activity is 68.1%.

With `CC(=O)Nc1ccc(-c2cn(-c3ccc(-n4nc(C(F)(F)F)cc4C(F)(F)F)cc3)nn2)cc1`, the Activity is 98.5%.

Regarding `O=C(O)c1cccc(-n2cc(-c3ccc(-n4nc(C(F)(F)F)cc4C(F)(F)F)cc3)nn2)c1`, the Activity turned out to be 80.2%.

With `CC(=O)Nc1ccc(-n2cc(-c3ccc(-n4nc(C(F)(F)F)cc4C(F)(F)F)cc3)nn2)cc1`, the Activity worked out at 98.8%.

Regarding `CCOC(=O)c1cnn(-c2ccc(-c3cn(-c4cccc(OC)c4)nn3)cc2)c1C(F)(F)F`, the Activity was found to be 117%.

As for `CCOC(=O)c1cnn(-c2ccc(-c3cn(-c4cc(OC)cc(OC)c4)nn3)cc2)c1C(F)(F)F`, the Activity was 113%.

Consider `CCOC(=O)c1cnn(-c2ccc(-n3cc(-c4ccccn4)nn3)cc2)c1C(F)(F)F`, for which the Activity was 81%.

Regarding `CCOC(=O)c1cnn(-c2ccc(-n3cc(CCCC(=O)O)nn3)cc2)c1C(F)(F)F`, the Activity worked out at 72.2%.

In the case of `CCOC(=O)c1cnn(-c2ccc(-c3cn(-c4cccc(O)c4)nn3)cc2)c1C(F)(F)F`, the Activity is 106%.

As for `Nc1ccc(-n2cc(-c3ccc(-n4nc(C(F)(F)F)cc4C(F)(F)F)cc3)nn2)cc1`, the Activity is 90.2%.

Regarding `FC(F)(F)c1cc(C(F)(F)F)n(-c2ccc(-n3cc(-c4ccccc4)nn3)cc2)n1`, the Activity worked out at 99.2%.

For the compound `FC(F)(F)c1cc(C(F)(F)F)n(-c2ccc(-c3cn(-c4ccccn4)nn3)cc2)n1`, the Activity amounted to 88.8%.

`FC(F)(F)c1cc(C(F)(F)F)n(-c2ccc(-c3cn(-c4cccnc4)nn3)cc2)n1`: the Activity is 77%.

As for `CCOC(=O)c1cnn(-c2ccc(-c3cn(-c4ccccc4)nn3)cc2)c1C(F)(F)F`, the Activity is 97.5%.

As for `CCOC(=O)c1cnn(-c2ccc(-c3cn(-c4ccc(Oc5ccccc5)cc4)nn3)cc2)c1C(F)(F)F`, the Activity was determined as 101%.

For the compound `COc1ccc(-c2cn(-c3ccc(-n4nc(C(F)(F)F)cc4C(F)(F)F)cc3)nn2)cc1`, the Activity came out at 99.6%.

In the case of `CCOC(=O)c1cnn(-c2ccc(-n3cc(-c4ccc(Oc5ccccc5)cc4)nn3)cc2)c1C(F)(F)F`, the Activity is 83.8%.

`CC(=O)Nc1cccc(-n2cc(-c3ccc(-n4nc(C(F)(F)F)cc4C(F)(F)F)cc3)nn2)c1`: the Activity is 101%.

Turning to `COc1cc(OC)cc(-c2cn(-c3ccc(-n4nc(C(F)(F)F)cc4C(F)(F)F)cc3)nn2)c1`, the Activity was 75.2%.

Take `CCOC(=O)c1cnn(-c2ccc(-n3cc(-c4ccc(Cl)cc4)nn3)cc2)c1C(F)(F)F`: the Activity was found to be 88.6%.

In the case of `CCOC(=O)c1cnn(-c2ccc(-c3cn(-c4ccccn4)nn3)cc2)c1C(F)(F)F`, the Activity is 77%.

Take `FC(F)(F)c1cc(C(F)(F)F)n(-c2ccc(-n3cc(-c4ccccn4)nn3)cc2)n1`: the Activity was found to be 114%.

As to `COc1cccc(-n2cc(-c3ccc(-n4nc(C(F)(F)F)cc4C(F)(F)F)cc3)nn2)c1`, the Activity is 113%.

`CCOC(=O)c1cnn(-c2ccc(-c3cn(-c4ccc(OC)cc4)nn3)cc2)c1C(F)(F)F`: the Activity is 83.1%.

For `CCOC(=O)c1cnn(-c2ccc(-n3cc(-c4ccc(OC)c(OC)c4)nn3)cc2)c1C(F)(F)F`, the Activity is 82.8%.

The next assay addresses Short transient receptor potential channel 1 & 3/Stromal interaction molecule 1/Calcium release-activated calcium channel protein 1 (Homo sapiens) (UniProt Q96D31+Q13507+Q13586+P48995). Kind of assay: Modulation of TRPC1/TRPC3/STIM1/Orai1 in HEK cells assessed as induction of store-operated calcium entry by measuring residual activity at 10 uM preincubated for 30 mins followed by tBhQ-mediated Ca2+ depletion and Ca2+ re-addition to extracellular solution measured for 600 secs by Fluo-4 AM-based fluorometric assay relative to control. In kind it is cell-based.
For `CCOC(=O)c1cnn(-c2ccc(-n3cc(-c4cccc(C(N)=O)c4)nn3)cc2)c1C(F)(F)F`, the Activity turned out to be 72.1%.

On to `CC(C)CCOC(=O)c1cnn(-c2ccc(-n3cc(-c4cccc(C(=O)O)c4)nn3)cc2)c1C(F)(F)F`, for which the Activity is more than 90%.

`CCOC(=O)c1cnn(-c2ccc(-c3cn(-c4cccc(CO)c4)nn3)cc2)c1C(F)(F)F`: the Activity was more than 90%.

Take `CCOC(=O)c1cnn(-c2ccc(-n3nncc3-c3cccc(C(=O)O)c3)cc2)c1C(F)(F)F`: the Activity is more than 90%.

As for `CC(C)NC(=O)c1cnn(-c2ccc(-n3cc(-c4cccc(C(=O)O)c4)nn3)cc2)c1C(F)(F)F`, the Activity was more than 90%.

Consider `CC(C)=CCC/C(C)=C/COC(=O)c1cnn(-c2ccc(-n3cc(-c4cccc(C(=O)O)c4)nn3)cc2)c1C(F)(F)F`, for which the Activity is more than 90%.

Take `CCOC(=O)c1cnn(-c2ccc(-c3cn(-c4cccc(C(C)=O)c4)nn3)cc2)c1C(F)(F)F`: the Activity was more than 90%.
